In patent publication US20030225527A1, “Crystals and structures of MST3” (priority 2002, published 2003):
Counter-ions that a name gives are not always drawn.

Molecular target: T1, MST3 kinase domain (Homo sapiens, UniProt Q9Y6E0)
T1 construct: 5 μg/ml MST3 kinase domain; Met-Ser-Leu (vector-encoded residues) (N); Glu-Gly-His6 (C); made in house; host or cells: E. coli
Test: MST3 kinase assay (PK/LDH-coupled, loss of NADH at 340 nm)
Type: biochemical
Conditions: purified MST3 kinase domain 5 μg/ml, 10 μM ATP, 400 μM MST3 peptide, 1 mM MnCl2

T1 sequence (Q9Y6E0 36-286 limits assumed): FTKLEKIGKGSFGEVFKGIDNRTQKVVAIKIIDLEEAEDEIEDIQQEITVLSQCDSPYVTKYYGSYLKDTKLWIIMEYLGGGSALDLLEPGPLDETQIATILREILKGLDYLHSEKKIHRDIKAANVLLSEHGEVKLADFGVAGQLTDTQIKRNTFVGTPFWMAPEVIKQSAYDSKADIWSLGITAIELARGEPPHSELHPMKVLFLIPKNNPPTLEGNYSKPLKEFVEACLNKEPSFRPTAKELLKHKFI

Structure (SMILES)	IC50 [µM]
O=S(=O)(NCCNCC=Cc1ccc(Br)cc1)c1cccc2cnccc12 [H89, N-[2-(p-Bromocinnamylamino)ethyl]-5-isoquinolinesulfonamide.2HCl]	30
O=S(=O)(c1cccc2c(Cl)cccc12)N1CCCNCC1 [ML-9, 1-(5-Chloronaphthalene-1-sulfonyl)-1H-hexahydro-1,4-diazepine.HCl]	18
